Like-named read-outs stand apart in the source and are kept apart here.
Legend:
hMT1 = settings: read-out: Ki hMT1; competition for 2-[125I]-iodomelatonin (300 pM); cited from earlier work
hMT2 = settings: read-out: Ki hMT2; competition for 2-[125I]-iodomelatonin (300 pM); cited from earlier work
serotonin levels = settings: single oral dose 60 mg/kg; cited from earlier work
hMT2 melatonin receptor [1] = target: T1, hMT2 melatonin receptor (Homo sapiens, UniProt P49286); experiment: biochemical; assay type: binding; settings: for fold higher affinity for hMT2 than for hMT1: competition with 2-[125I]-iodomelatonin binding; for ratio MT1/MT2 (KiMT1/KiMT2): fold difference in affinity between hMT1 and hMT2
T1 sequence (P49286 1-362): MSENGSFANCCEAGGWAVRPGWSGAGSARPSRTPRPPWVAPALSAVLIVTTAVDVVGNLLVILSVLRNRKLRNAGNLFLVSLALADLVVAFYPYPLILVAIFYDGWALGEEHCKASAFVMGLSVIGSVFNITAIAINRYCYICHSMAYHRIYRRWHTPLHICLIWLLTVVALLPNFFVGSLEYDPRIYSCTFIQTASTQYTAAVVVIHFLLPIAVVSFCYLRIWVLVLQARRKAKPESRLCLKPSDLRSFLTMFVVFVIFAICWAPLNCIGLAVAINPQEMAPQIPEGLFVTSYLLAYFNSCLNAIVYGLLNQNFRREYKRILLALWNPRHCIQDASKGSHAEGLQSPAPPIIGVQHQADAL

hMT1 melatonin receptor [2] = target: T2, hMT1 melatonin receptor (Homo sapiens, UniProt P48039); experiment: biochemical; assay type: binding; settings: for ratio KiGTP/KiControl, human MT1: 100 μM GTP vs control; for ratio KiGTP/KiControl, human MT1 / Ki: mean ± SEM; for apparent intrinsic efficacy at hMT1 from GTP shift: classified by KiGTP/KiControl: agonists >1, antagonists =1, inverse agonists <1; for Ki: human MT1 Ki value, 25 °C, 1 h
T2 sequence (P48039 whole entry): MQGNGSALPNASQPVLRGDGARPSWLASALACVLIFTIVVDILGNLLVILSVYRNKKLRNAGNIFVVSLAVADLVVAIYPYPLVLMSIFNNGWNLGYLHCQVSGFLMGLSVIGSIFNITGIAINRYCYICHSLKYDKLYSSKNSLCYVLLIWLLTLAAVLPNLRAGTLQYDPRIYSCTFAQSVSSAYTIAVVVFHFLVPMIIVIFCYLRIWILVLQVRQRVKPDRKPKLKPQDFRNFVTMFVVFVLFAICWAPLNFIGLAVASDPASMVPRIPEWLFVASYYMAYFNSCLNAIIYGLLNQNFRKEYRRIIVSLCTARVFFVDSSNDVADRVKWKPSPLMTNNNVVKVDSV

hMT2 melatonin receptor [3] = target: T1, hMT2 melatonin receptor; experiment: biochemical; assay type: binding; settings: for ratio KiGTP/KiControl, human MT2: 100 μM GTP vs control; for ratio KiGTP/KiControl, human MT2 / Ki: mean ± SEM; for apparent intrinsic efficacy at hMT2 from GTP shift: classified by KiGTP/KiControl: agonists >1, antagonists =1, inverse agonists <1; for Ki: human MT2 Ki value, 25 °C, 1 h
hMT1 melatonin receptor [4] = target: T2, hMT1 melatonin receptor; experiment: biochemical; assay type: binding

| Structure (SMILES) | Ki (hMT1) | Ki (hMT2) | levels of serotonin (serotonin levels) | Ki (hMT2 melatonin receptor [1]) | fold higher affinity for hMT2 than for hMT1 (hMT2 melatonin receptor [1]) | ratio MT1/MT2 (KiMT1/KiMT2) (hMT2 melatonin receptor [1]) | ratio KiGTP/KiControl, human MT1 (hMT1 melatonin receptor [2]) | apparent intrinsic efficacy at hMT1 from GTP shift (hMT1 melatonin receptor [2]) | Ki (hMT1 melatonin receptor [2]; GTP, presence of 100 μM GTP) | Ki (hMT1 melatonin receptor [2]; control, absence of GTP) | ratio KiGTP/KiControl, human MT2 (hMT2 melatonin receptor [3]) | apparent intrinsic efficacy at hMT2 from GTP shift (hMT2 melatonin receptor [3]) | Ki (hMT2 melatonin receptor [3]; GTP, presence of 100 μM GTP) | Ki (hMT2 melatonin receptor [3]; control, absence of GTP) | Ki (hMT1 melatonin receptor [4]; affinity at hMT1, text of discussion, equals the Table 2 control value) | Ki (hMT1 melatonin receptor [4]) |
| --- | --- | --- | --- | --- | --- | --- | --- | --- | --- | --- | --- | --- | --- | --- | --- | --- |
| CCC(=O)NC1Cc2ccccc2C(c2ccccc2)C1 (centres unmarked) [4P-PDOT] | 658 nM | 0.41 nM |  |  |  |  |  |  |  |  |  |  |  |  |  |  |
| CNC(=O)Oc1cccc2ccccc12 [carbaryl, 1-naphthyl methylcarbamate] |  |  | increased | 70 ± 10 nM | 33 fold | 32.4 | 0.65 ± 0.16 | antagonist/inverse agonist | 1210 ± 110 nM | 2330 ± 530 nM | 4.82 ± 0.82 | agonist | 310 ± 30 nM | 70 ± 5 nM | 2330 nM |  |
| CNC(=O)Oc1cccc2c1OC(C)(C)C2 [carbofuran, 2,3-dihydro-2,2-dimethyl-7-benzofuranyl methylcarbamate] |  |  |  | 1680 ± 240 nM | 35 fold | 34.8 | 0.59 ± 0.24 | antagonist/inverse agonist | 29900 ± 8600 nM | 63500 ± 12500 nM | 10.8 ± 4.2 | agonist efficacy | 12100 ± 2630 nM | 1670 ± 390 nM |  | 58500 ± 8250 nM |
| CC(=O)NCCc1c(Cc2ccccc2)[nH]c2ccccc12 [luzindole] | 179 nM | 7.3 nM |  |  |  |  |  |  |  |  |  |  |  |  |  |  |
